# Test results as given in US20140214336A1, “SYSTEMS AND METHODS FOR NETWORK-BASED BIOLOGICAL ACTIVITY ASSESSMENT” (PHILIP MORRIS PRODUCTS S.A., priority 2011, published 2014).
# How the values were obtained:
# [1] = test system: Normal human bronchial epithelial (NHBE) cells; assay: Cell cycle arrest and S-phase re-entry in NHBE cell culture (fluorescent S-phase labeling / FACS); type: cell-based
# Experimental: (§1) The systems and methods described herein have been tested using a well-understood cell culture experiment. […] The treated cells were then allowed to re-enter the cell cycle by removal of the CDKI from the media and washing. Re-entry of the cell cycle was experimentally confirmed by labeling the cells fluorescently in S-phase at 2, 4, 6 and 8 hours after the CDKI was removed and the cells were washed. The gene transcription profiles of cells that were sampled 2, 4, 6, and 8 hours after the removal of the CDKI, were obtained. Profiles of cells that were continuously exposed to CDKI in media were also obtained. To identify biological processes and mechanisms that were differentially activated when CDKI was removed, network perturbation amplitude scores were calculated using gene transcription profiles of the washed cells obtained at various time point. For the computation of a NPA score for the perturbation associated with the removal of CDKI, a cell cycle subnetwork that comprises 127 nodes and 240 edges, was used. It is a subnetwork of the cell proliferation network model published in […] et al. (2011, “A computable cellular stress network model for non-diseased pulmonary and cardiovascular tissue” BMC Syst Biol. Oct 19; 5:168, which is incorporated herein by reference in its entirety). […]
# [2] = test system: cell cycle subnetwork in NHBE cells; assay: Network perturbation amplitude (NPA) score on the cell cycle subnetwork, from gene transcription profiles of NHBE cells; type: cell-based, human; conditions: from 2-hour to 8-hour time point after removal of CDKI, versus cells continuously exposed to CDKI; subnetwork of 127 nodes and 240 edges
# Experimental: as §1
compound,measurement,setting,value
CC(=O)c1c(C)c2cnc(Nc3ccc(N4CCNCC4)cn3)nc2n(C2CCCC2)c1=O [PD-0332991],"number of cells in S-phase (FACS analysis, FIG. 17)","[1]; 2, 4, 6 and 8 hours after the CDKI was removed and the cells were washed",increase
same,effect on cell cycle,[1]; NHBE cells exposed to the CDKI in media,arrests the cells in G1
same,NPA scores (FIG. 18),[2],increase
